# Calls of active or inactive are those of the source. The calls are words filed in the database; no cut-off is given here.
# Columns and labels:
# Nakaseomyces glabratus = experiment: Antifungal activity against Candida glabrata assessed as inhibition of fungal growth by CLSI protocol based microdilution method; format: functional
# Candida albicans [1] = experiment: Antifungal activity against fluconazole-resistant Candida albicans CaR assessed as inhibition of fungal growth by CLSI based microdilution method; format: functional
# Candida albicans [2] = experiment: Antifungal activity against fluconazole-resistant Candida albicans 901 assessed as inhibition of fungal growth by CLSI based microdilution method; format: functional
# Candida albicans [3] = experiment: Antifungal activity against fluconazole-resistant Candida albicans 17 assessed as inhibition of fungal growth by CLSI based microdilution method; format: functional
# Candida albicans [4] = experiment: Antifungal activity against fluconazole-resistant Candida albicans 632 assessed as inhibition of fungal growth by CLSI based microdilution method; format: functional
# Pichia kudriavzevii = experiment: Antifungal activity against Candida krusei AS 2.1045 assessed as inhibition of fungal growth by CLSI protocol based microdilution method; format: functional
# Candida parapsilosis = experiment: Antifungal activity against Candida parapsilosis ATCC 22019 assessed as inhibition of fungal growth by CLSI protocol based microdilution method; format: functional; details: Lodderomyces parapsilosis
# Candida tropicalis = experiment: Antifungal activity against Candida tropicalis CGMCC 2.3739 assessed as inhibition of fungal growth by CLSI protocol based microdilution method; format: functional
# Candida albicans [5] = experiment: Antifungal activity against Candida albicans SC5314 assessed as inhibition of fungal growth by CLSI protocol based microdilution method; format: functional
# Candida albicans [6] = experiment: Antifungal activity against Candida albicans CPCC400616 assessed as inhibition of fungal growth by CLSI protocol based microdilution method; format: functional
# Cryptococcus neoformans = experiment: Antifungal activity against Cryptococcus neoformans CGMCC2.3161 assessed as inhibition of fungal growth by CLSI protocol based microdilution method; format: functional
# Candida albicans [7] = experiment: Antifungal activity against fluconazole-resistant Candida albicans 904 assessed as inhibition of fungal growth by CLSI based microdilution method; format: functional
# Aspergillus fumigatus = experiment: Antifungal activity against Aspergillus fumigatus CGMCC 3.7795 assessed as inhibition of fungal growth by CLSI protocol based microdilution method; format: functional
# [8] = Half life in mouse plasma measured at 180 mins; format: ADME, cell-free
# [9] = target: T1, Lanosterol 14-alpha demethylase (Candida albicans (strain SC5314 / ATCC MYA-2876) (Yeast), UniProt P10613); experiment: Inhibition of CYP51 in Candida albicans SC5314 assessed as increase in lanosterol level at 0.031 ug/ml incubated for 24 hrs by GC-MS analysis relative to control; details: at 0.031 µg/mL
# Candida albicans [10] = experiment: Antifungal activity against Candida albicans SC5314 assessed as leakage of endogenous substances at 16 ug/ml incubated for 24 hrs by transmission electron microscopic analysis; format: functional, organism-based; details: dose 16.0 µg/ml
# [11] = target: T1, Lanosterol 14-alpha demethylase; experiment: Inhibition of CYP51 in Candida albicans SC5314 assessed as reduction in ergosterol content at 0.031 ug/ml incubated for 24 hrs by GC-MS analysis relative to control; details: at 0.031 µg/mL
# [12] = target: T1, Lanosterol 14-alpha demethylase; experiment: Inhibition of CYP51 in Candida albicans SC5314 assessed as increase in obtusifoliol level at 0.031 ug/ml incubated for 24 hrs by GC-MS analysis relative to control; details: at 0.031 µg/mL
# Candida albicans [13] = experiment: Antifungal activity against Candida albicans assessed as inhibition of fungal growth by CLSI protocol based microdilution method; format: functional
# Candida albicans [14] = experiment: Antifungal activity against Candida albicans SC5314 assessed as fungal cell membrane injury at 16 ug/ml incubated for 24 hrs by transmission electron microscopic analysis; format: functional, organism-based; details: dose 16.0 µg/ml
# [15] = Stability in mouse plasma assessed as parent compound remaining measured at 180 mins; format: ADME, cell-free; details: read-out: Stability
# [16] = target: T1, Lanosterol 14-alpha demethylase; experiment: Inhibition of CYP51 in Candida albicans SC5314 assessed as increase in eburicol level at 0.031 ug/ml incubated for 24 hrs by GC-MS analysis relative to control; details: at 0.031 µg/mL
# Candida albicans [17] = experiment: Fungicidal activity against Candida albicans assessed as inhibition of fungal growth measured after 48 hrs by CLSI protocol based microdilution method; format: functional
# [18] = Metabolic stability in mouse liver microsomes assessed as half life; format: ADME, Microsome
# T1 sequence (P10613 whole entry): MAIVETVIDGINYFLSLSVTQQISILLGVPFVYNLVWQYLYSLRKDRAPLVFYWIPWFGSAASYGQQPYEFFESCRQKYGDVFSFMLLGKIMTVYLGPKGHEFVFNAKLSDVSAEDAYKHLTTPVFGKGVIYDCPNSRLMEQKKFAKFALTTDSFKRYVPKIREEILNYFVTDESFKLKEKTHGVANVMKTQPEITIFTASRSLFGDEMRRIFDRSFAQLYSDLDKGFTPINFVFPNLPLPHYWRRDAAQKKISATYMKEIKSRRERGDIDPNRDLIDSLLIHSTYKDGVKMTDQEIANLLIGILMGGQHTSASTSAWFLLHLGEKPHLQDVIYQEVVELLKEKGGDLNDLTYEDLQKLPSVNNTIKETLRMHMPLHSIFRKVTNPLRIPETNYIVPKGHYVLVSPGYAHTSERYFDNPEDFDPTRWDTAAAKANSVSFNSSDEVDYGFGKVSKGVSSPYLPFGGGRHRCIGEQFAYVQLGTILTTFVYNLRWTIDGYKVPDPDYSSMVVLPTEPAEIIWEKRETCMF
SMILES,MIC (Nakaseomyces glabratus),MIC (Candida albicans [1]),MIC (Candida albicans [2]),MIC (Candida albicans [3]),MIC (Candida albicans [4]),MIC (Pichia kudriavzevii),MIC (Candida parapsilosis),MIC (Candida tropicalis),MIC (Candida albicans [5]),MIC (Candida albicans [6]),MIC (Cryptococcus neoformans),MIC (Candida albicans [7]),MIC (Aspergillus fumigatus),other results
CNC(=O)/C=C/c1ccc(COC(Cn2ccnc2)c2ccc(Cl)cc2Cl)cc1 (configuration not stated),32 µg/mL,128 µg/mL,16 µg/mL,128 µg/mL,4 µg/mL,16 µg/mL,4 µg/mL,8 µg/mL,0.125 µg/mL,0.25 µg/mL,8 µg/mL,16 µg/mL,8 µg/mL,
Cc1ccc(NC(=O)/C=C/c2ccc(COC(Cn3ccnc3)c3ccc(Cl)cc3Cl)cc2)cc1 (configuration not stated),16 µg/mL,4 µg/mL,1 µg/mL,1 µg/mL,0.25 µg/mL,16 µg/mL,0.125 µg/mL,64 µg/mL,0.06 µg/mL,0.03 µg/mL,0.125 µg/mL,2 µg/mL,16 µg/mL,
CCCNC(=O)/C=C/c1ccc(COC(Cn2ccnc2)c2ccc(Cl)cc2Cl)cc1 (configuration not stated),8 µg/mL,64 µg/mL,16 µg/mL,32 µg/mL,2 µg/mL,4 µg/mL,0.125 µg/mL,8 µg/mL,0.03 µg/mL,0.06 µg/mL,4 µg/mL,16 µg/mL,4 µg/mL,
Clc1ccc(COC(Cn2ccnc2)c2ccc(Cl)cc2Cl)c(Cl)c1 (configuration not stated) [MICONAZOLE],0.5 µg/mL,,,,,0.5 µg/mL,0.25 µg/mL,1 µg/mL,0.03 µg/mL,0.25 µg/mL,0.25 µg/mL,,2 µg/mL,half-life [8]: > 6 h
O=C(/C=C/c1ccc(COC(Cn2ccnc2)c2ccc(Cl)cc2Cl)cc1)Nc1cccc(Br)c1 (configuration not stated),64 µg/mL,128 µg/mL,4 µg/mL,128 µg/mL,4 µg/mL,64 µg/mL,0.125 µg/mL,64 µg/mL,0.125 µg/mL,0.25 µg/mL,8 µg/mL,2 µg/mL,4 µg/mL,
CCNC(=O)/C=C/c1ccc(COC(Cn2ccnc2)c2ccc(Cl)cc2Cl)cc1 (configuration not stated),16 µg/mL,128 µg/mL,16 µg/mL,128 µg/mL,2 µg/mL,32 µg/mL,8 µg/mL,4 µg/mL,1 µg/mL,0.5 µg/mL,8 µg/mL,16 µg/mL,8 µg/mL,
O=C(/C=C/c1ccc(COC(Cn2ccnc2)c2ccc(Cl)cc2Cl)cc1)Nc1ccc(Cl)cc1 (configuration not stated),8 µg/mL,8 µg/mL,1 µg/mL,128 µg/mL,0.5 µg/mL,4 µg/mL,0.125 µg/mL,1 µg/mL,0.03 µg/mL,0.06 µg/mL,2 µg/mL,0.5 µg/mL,0.5 µg/mL,
O=C(/C=C/c1ccc(COC(Cn2ccnc2)c2ccc(Cl)cc2Cl)cc1)NC1CC1 (configuration not stated),64 µg/mL,128 µg/mL,2 µg/mL,32 µg/mL,1 µg/mL,64 µg/mL,1 µg/mL,4 µg/mL,0.125 µg/mL,0.25 µg/mL,16 µg/mL,4 µg/mL,2 µg/mL,
OC(Cn1cncn1)(Cn1cncn1)c1ccc(F)cc1F [FLUCONAZOLE],32 µg/mL,> 128 µg/mL,> 128 µg/mL,> 128 µg/mL,> 128 µg/mL,32 µg/mL,4 µg/mL,2 µg/mL,0.5 µg/mL,4 µg/mL,4 µg/mL,> 128 µg/mL,> 128 µg/mL,inhibition (INH) [9]: Active; Activity (Candida albicans [10]): Active; inhibition (INH) [11]: 48.4%; inhibition (INH) [12]: Active; MIC (Candida albicans [13]): > 128 µg/mL; Activity (Candida albicans [14]): Active; remaining at 3 h [15]: 116%; half-life [8]: > 6 h; inhibition (INH) [16]: Active; MFC (Candida albicans [17]): > 128 µg/mL; half-life [18]: > 2 h
CC(C)NC(=O)/C=C/c1ccc(COC(Cn2ccnc2)c2ccc(Cl)cc2Cl)cc1 (configuration not stated),4 µg/mL,16 µg/mL,4 µg/mL,16 µg/mL,1 µg/mL,4 µg/mL,2 µg/mL,4 µg/mL,0.5 µg/mL,0.125 µg/mL,8 µg/mL,8 µg/mL,2 µg/mL,
